13 compounds from patent US20210353579A1, “HIGH PENETRATION COMPOSITIONS AND USES THEREOF” (Techfields Pharma Co., Ltd., priority 2006, published 2021) can be followed below.

The subject of one data set is mice. Description: Analgesic activity, acetic acid writhing. Type of data set: in vivo. The procedure:
The prodrug compounds are administered either transdermally or orally. The parent compounds are administered orally. The number of writhing that occurred when mice are administered the acetic acid solution are counted, and the rate of inhibition based on the control group which was not pretreated with any test compounds is calculated. […] The A group is the control group.

For a further data set, the system named is rats. Put plainly: Antipyretic activity, E. coli suspension as pyrogen. Type of data set: in vivo. To be noted: in °C (unit assumed). As to the method: Rats are administered with sterilized E. coli suspension as a pyrogen. Each group of rats are administered with a prodrug compounds or parent compounds at a dosage specified below. The prodrug compounds are administered either orally or transdermally. The parent compounds are administered orally.

The nature of data set [1]: Plasma levels after transdermal administration to hairless mice. Type of data set: in vivo. To be noted: for Peak plasma concentration of parent compound after prodrug compound / t, time to peak plasma level of parent compound after prodrug compound: mouse, in vivo; for t, time to peak plasma level after parent compound: parent compound administered (time when taken orally); for Peak plasma concentration after parent compound: parent compound administered, hairless mice. The procedure:
Tested compounds (20% solution or suspension in 1 mL isopropanol) are administered transdermally to the skin of intact hairless mice. The plasma levels of the parent compounds are determined by HPLC.

A further data set has as its system rat. To be noted: rats.
The test system of the next data set is human skin tissue. To be noted: pH 7.4; for In vitro penetration rate (apparent flux), parent compounds: human, 20 %.
Data set [2] in a line: Solubility in water / aqueous solubility of HPPs and parent drugs. To be noted: water.
Where [3] appears, read: 100 mg/kg transdermally, 30 min before acetic acid.
The mark [4] stands for this setting: 50 mg/kg transdermally, 60 minutes before acetic acid.
Where [5] appears, read: 50 mg/kg orally, 30 min before acetic acid.
Setting [6] is: 50 mg/kg transdermally, 30 min before acetic acid.
The mark [7] stands for this setting: 100 mg/kg orally, 30 min before acetic acid.

Converted amounts (≈) assume the structure as drawn.
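For LD50 of HPP in this document: acute toxicity in rats expressed as LD50, determined for both prodrugs and their parent compounds.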

For `CC(=O)O.CCN(CC)CCOC(=O)C1CCc2cc(C3CCCCC3)c(Cl)cc21` (stereo not drawn) [diethylaminoethyl 6-chloro-5-cyclohexyl-2,3-dihydro-1H-indene-1-carboxylate.AcOH], in the data set with mice (setting [3]), the “% (rate of writhing inhibition)” value is listed as 57% and the “No. of Writhing” value came to 15.2. In the data set with rats (100 mg/kg transdermally), the “body temperature, t = 0 min” value worked out at 37.25 ± 0.06; the “body temperature, t = 90 min” value is recorded as 36.63 ± 0.06; the “body temperature, t = 180 min” value worked out at 36.55 ± 0.08; the “body temperature, t = 270 min” value was determined as 36.51 ± 0.07. In data set [1], the “Peak plasma concentration of parent compound after prodrug compound” value was 2000 mg/L and the “t, time to peak plasma level of parent compound after prodrug compound” value (from here on “t, time … after prodrug compound”) is on record as 50 min. Besides, in the data set on rat, the “LD50 of HPP” value was 200 mg/kg. In the data set on human skin tissue, the “In vitro penetration rate (apparent flux), prodrug compounds” value is given as 4000 μg/cm^2/h.
With `CC(=O)O.CCN(CC)CCOC(=O)C(C)c1ccc2cc(OC)ccc2c1` (stereo not drawn) [diethylaminoethyl 2-(6-methoxy-2-naphthyl)propionate.AcOH], in the data set on mice (setting [3]), the “% (rate of writhing inhibition)” value came to 51% and the “No. of Writhing” value came out at 17.1. In the data set on rats (100 mg/kg transdermally), the “body temperature, t = 0 min” value is recorded as 37.33 ± 0.07; the “body temperature, t = 90 min” value came out at 36.80 ± 0.06; the “body temperature, t = 180 min” value is on record as 36.72 ± 0.05; the “body temperature, t = 270 min” value is 36.50 ± 0.08. In addition, in data set [1], the “Peak plasma concentration of parent compound after prodrug compound” value came out at 2000 mg/L and the “t, time … after prodrug compound” value is on record as 50 min. Further, in the data set on rat, the “LD50 of HPP” value worked out at 2200 mg/kg. For the same compound, the “In vitro penetration rate (apparent flux), prodrug compounds” value in the data set with human skin tissue is listed as 3500 μg/cm^2/h.
As for `CC(=O)Oc1ccccc1C(=O)OCCN(C)C` [dimethylaminoethyl acetylsalicylate.AcOH], in the data set with rat, the “LD50 of HPP” value is 2200 mg/kg.
Take `CC(=O)O.CCN(CC)CCOC(=O)C(Cl)c1ccc(C2CCCCC2)c(Cl)c1` (stereo not drawn) [diethylaminoethyl α,3-dichloro-4-cyclohexylbenzeneacetate.AcOH]: in the data set with mice (setting [3]), the “% (rate of writhing inhibition)” value is recorded as 57% and the “No. of Writhing” value is listed as 15.2. In addition, in the data set with rats (100 mg/kg transdermally), the “body temperature, t = 0 min” value worked out at 37.25 ± 0.06; the “body temperature, t = 90 min” value was 36.75 ± 0.05; the “body temperature, t = 180 min” value was 36.62 ± 0.08; the “body temperature, t = 270 min” value stood at 36.58 ± 0.07. Further, in data set [1], the “Peak plasma concentration of parent compound after prodrug compound” value is 2000 mg/L and the “t, time … after prodrug compound” value turned out to be 50 min. The “LD50 of HPP” value in the data set with rat was determined as 600 mg/kg. Besides, the “In vitro penetration rate (apparent flux), prodrug compounds” value with human skin tissue was determined as 3800 μg/cm^2/h.
In the case of `CC(=O)O.CC(C)Cc1ccc(C(C)C(=O)OCCN(C)C)cc1` (stereo not drawn) [dimethylaminoethyl 2-(ρ-isobutylphenyl) propionate.AcOH], the “LD50 of HPP” value in the data set on rat turned out to be 1600 mg/kg.
As to `CC(=O)O.CCN(CC)CCOC(=O)C(C)c1ccc(N2Cc3ccccc3C2=O)cc1` (stereo not drawn) [diethylaminoethyl 4-(1,3-dihydro-1-oxo-2H-isoindol-2-yl)-α-methylbenzeneacetate.AcOH], in the data set on mice (setting [3]), the “% (rate of writhing inhibition)” value came to 62% and the “No. of Writhing” value is on record as 13.2. Also, in the data set on rats (100 mg/kg transdermally), the “body temperature, t = 0 min” value came to 37.28 ± 0.06; the “body temperature, t = 90 min” value was 36.65 ± 0.06; the “body temperature, t = 180 min” value was determined as 36.58 ± 0.08; the “body temperature, t = 270 min” value stood at 36.56 ± 0.07. Moreover, in data set [1], the “Peak plasma concentration of parent compound after prodrug compound” value was determined as 2000 mg/L and the “t, time … after prodrug compound” value worked out at 50 min. Also, the “LD50 of HPP” value in the data set with rat was determined as 3500 mg/kg. For the same compound, the “In vitro penetration rate (apparent flux), prodrug compounds” value with human skin tissue was found to be 4200 μg/cm^2/h.
As for `CC(=O)O.CCN(CC)CCOC(=O)C(C)c1ccc2oc(-c3ccc(Cl)cc3)nc2c1` (stereo not drawn) [diethylaminoethyl 2-(4-chlorophenyl)-α-methyl-5-benzoxazoleacetate.AcOH], in the data set on mice (setting [3]), the “% (rate of writhing inhibition)” value is reported as 51% and the “No. of Writhing” value came to 17.1. In the data set on rats (100 mg/kg transdermally), the “body temperature, t = 0 min” value came out at 37.25 ± 0.07; the “body temperature, t = 90 min” value is reported as 36.82 ± 0.06; the “body temperature, t = 180 min” value was 36.70 ± 0.05; the “body temperature, t = 270 min” value stood at 36.50 ± 0.08. In addition, in data set [1], the “Peak plasma concentration of parent compound after prodrug compound” value was 2000 mg/L and the “t, time … after prodrug compound” value turned out to be 50 min. Further, the “LD50 of HPP” value in the data set with rat is 1300 mg/kg. Also, the “In vitro penetration rate (apparent flux), prodrug compounds” value with human skin tissue came out at 4000 μg/cm^2/h.
On to `CN(C)CCCC(=O)OC1=C(C(=O)Nc2ccccn2)N(C)S(=O)(=O)c2cc(Cl)sc21.Cl` [6-chloro-4-N,N-dimethylaminobutyryloxy-2-methyl-N-2-pyridinyl-2H-thieno[2,3-e]-1,2-thiazine-3-carboxamide 1,1-dioxide.HCl], for which, in the data set with mice (setting [4]), the “% (rate of writhing inhibition)” value is on record as 53% and the “No. of Writhing” value is given as 16.5. Also, in the data set on rats (25 mg/kg transdermally), the “body temperature, t = 0 min” value is given as 37.55 ± 0.05; the “body temperature, t = 90 min” value was 36.66 ± 0.06; the “body temperature, t = 180 min” value was 36.60 ± 0.06; the “body temperature, t = 270 min” value is reported as 36.61 ± 0.07. The “Peak plasma concentration of parent compound after prodrug compound” value in data set [1] was 20 mg/L. In addition, the “LD50 of HPP” value with rat was 580 mg/kg. In the data set on human skin tissue, the “In vitro penetration rate (apparent flux), prodrug compounds” value worked out at 1600 μg/cm^2/h.
Take `CC(=O)O.CCN(CC)CCOC(=O)CC1=C(C)/C(=C/c2ccc([S+](C)[O-])cc2)c2ccc(F)cc21` (stereo not drawn) [diethylaminoethyl (Z)-5-fluoro-2-methyl-1-[(4-methylsulfinyl)phenylmethylene]-1H-indene-3-acetate.AcOH]: in the data set with mice (setting [3]), the “% (rate of writhing inhibition)” value stood at 59% and the “No. of Writhing” value worked out at 14.2. Moreover, in the data set on rats (100 mg/kg transdermally), the “body temperature, t = 0 min” value amounted to 37.28 ± 0.06; the “body temperature, t = 90 min” value was 36.65 ± 0.05; the “body temperature, t = 180 min” value came to 36.62 ± 0.08; the “body temperature, t = 270 min” value was 36.58 ± 0.07. In addition, in data set [1], the “Peak plasma concentration of parent compound after prodrug compound” value was found to be 20 mg/L and the “t, time … after prodrug compound” value worked out at 50 min. The “LD50 of HPP” value with rat worked out at 500 mg/kg. In the data set on human skin tissue, the “In vitro penetration rate (apparent flux), prodrug compounds” value was 900 μg/cm^2/h.
For the compound `CC(=O)O.CCN(CC)CCOC(=O)C(C)c1ccc(CC(C)C)cc1` (stereo not drawn) [diethylaminoethyl 2-(ρ-isobutylphenyl) propionate.AcOH], the “% (rate of writhing inhibition)” value in the data set on mice (setting [5]) stood at 59%; in the data set with mice (setting [6]) it was 61%; in the data set with mice (setting [7]), 70%; in the data set on mice (setting [3]), 71%. The “No. of Writhing” value in the data set with mice (setting [5]) was found to be 14.1; with mice (setting [6]), 13.3; in the data set with mice (setting [7]), 10.2; in the data set on mice (setting [3]), 9.8. Further, the “body temperature, t = 0 min” value amounted to 37.22 ± 0.07 in the data set on rats (100 mg/kg orally), 37.27 ± 0.06 with rats (100 mg/kg transdermally), 37.24 ± 0.08 in the data set on rats (150 mg/kg orally) and 37.26 ± 0.05 in the data set on rats (150 mg/kg transdermally). In addition, the “body temperature, t = 90 min” value in the data set on rats (100 mg/kg orally) was 36.40 ± 0.06; with rats (100 mg/kg transdermally), 36.30 ± 0.06; in the data set with rats (150 mg/kg orally), 36.30 ± 0.05; in the data set on rats (150 mg/kg transdermally), 36.25 ± 0.05. The “body temperature, t = 180 min” value in the data set with rats (100 mg/kg orally) came to 36.50 ± 0.05; in the data set on rats (100 mg/kg transdermally) it was 36.35 ± 0.08; with rats (150 mg/kg orally) it was 36.35 ± 0.07; in the data set with rats (150 mg/kg transdermally), 36.30 ± 0.07. The “body temperature, t = 270 min” value with rats (100 mg/kg orally) is on record as 36.45 ± 0.08; in the data set on rats (100 mg/kg transdermally), 36.31 ± 0.07; in the data set with rats (150 mg/kg orally), 36.38 ± 0.08; in the data set on rats (150 mg/kg transdermally), 36.20 ± 0.05. Besides, the “Peak plasma concentration of parent compound after prodrug compound” value in data set [1] came out at 120 mg/L. The “t, time … after prodrug compound” value in data set [1] was determined as 30 min. Further, the “LD50 of HPP” value in the data set with rat was found to be 1800 mg/kg. Further, the “In vitro penetration rate (apparent flux), prodrug compounds” value with human skin tissue is 1250 μg/cm^2/h.
Broadly, the solubility is the dissolved amount per volume that the medium holds. For the compound `C=CCOc1ccc(CC(=O)O)cc1Cl` [Alclofenac, alclofenac, reference compound], the solubility in data set [2] was 100 µg/mL (≈ 441 µM). In data set [1], the “t, time to peak plasma level after parent compound” value was in the range of 1 to 2 h and the “Peak plasma concentration after parent compound” value was found to be 0.1 mg/L. For the same compound, the “In vitro penetration rate (apparent flux), parent compounds” value with human skin tissue was 10 μg/cm^2/h.
Taken in the same sequence, the figures for `Cc1ccc2c(c1)CC(=O)c1cc(C(C)C(=O)O)ccc1O2` (stereo not drawn) [Bermoprofen, bermoprofen, reference compound] were 100 µg/mL (≈ 337 µM), 2 to 4 h, 10 mg/L and 40 μg/cm^2/h.
Take `Cc1ccc(Cl)c(Nc2ccccc2C(=O)O)c1Cl` [Meclofenamic acid, meclofenamic acid, reference compound]: the solubility in data set [2] was below 100 µg/mL. Also, in data set [1], the “t, time to peak plasma level after parent compound” value fell in the range of 2 to 4 h and the “Peak plasma concentration after parent compound” value is recorded as 0.1 mg/L. Besides, the “In vitro penetration rate (apparent flux), parent compounds” value with human skin tissue is listed as 10 μg/cm^2/h.
